Results published in ChEMBL document CHEMBL1152593, “Furanocoumarins: novel topoisomerase I inhibitors from Ruta graveolens L” (Bioorg Med Chem, 2009).
pIC50: −log10 of the molar value. Calls of active or inactive are those of the source. The rule behind the calls is not given here.

Legend:
Bos taurus [1] = species: Bos taurus; assay: Inhibition of calf thymus DNA topoisomerase 1 assessed as pUC19 DNA relaxation at 10 uM by gel electrophoresis
Bos taurus [2] = species: Bos taurus; assay: (§1) Inhibition of calf thymus DNA topoisomerase 1 assessed as pUC19 DNA relaxation by gel electrophoresis
[3] = as §1; parameters: species or system Bos taurus
Bos taurus [4] = species: Bos taurus; assay: Inhibition of calf thymus DNA topoisomerase 1 assessed as pUC19 DNA relaxation at 40 uM by gel electrophoresis
Bos taurus [5] = species: Bos taurus; assay: Inhibition of calf thymus DNA topoisomerase 1 assessed as pUC19 DNA relaxation at 20 uM by gel electrophoresis

Compound	Activity (Bos taurus [1])	inhibition (Bos taurus [2])	pIC50 [3]	inhibition (Bos taurus [4])	inhibition (Bos taurus [1])	inhibition (Bos taurus [5])
COc1c2ccoc2cc2oc(=O)ccc12 [BERGAPTEN]	Active	Dose-dependent effect	5.19			
COc1c2occc2cc2ccc(=O)oc12 [METHOXSALEN]		Dose-dependent effect	4.55	Active		
O=c1ccc2cc3ccoc3cc2o1 [PSORALEN]		Dose-dependent effect	4.96		inactive	100%
